Literature values, collected in PMC8042970, “A phase 1 study of dalpiciclib, a cyclin-dependent kinase 4/6 inhibitor in Chinese patients with advanced breast cancer” (Biomarker Research, 2021).
Read-outs that look alike come from different tables or passages of the source.

Key:
[1] = system: HR-positive and HER2-negative metastatic breast cancer
CDK6 = details: ref product label or FDA review
CDK4 = details: ref product label or FDA review
[2] = set-up: method as in product label or FDA review; details: ref product label or FDA review
[3] = set-up: method as in product label or FDA review; details: ref product label or FDA review; remark: listed apart in the source
[4] = set-up: method as in product label or FDA review; details: ref product label or FDA review; remark: listed apart in the source
[5] = single agent abemaciclib, heavily pretreated population
[6] = phase 1 dose-escalation study of palbociclib
[7] = single agent palbociclib, moderately pretreated population

In the case of CCN1CCN(Cc2ccc(Nc3ncc(F)c(-c4cc(F)c5nc(C)n(C(C)C)c5c4)n3)nc2)CC1 [abemaciclib], the DCR [1, 5] is given as 66.7%, the “Median PFS” value [1, 5] is given as 5.9 months and the IC50 (CDK6) is given as 9.9 nM. The IC50 (CDK4) was […], the Metabolism [2] was “Liver (CYP3A4)” and the “Excretion, Feces” value [3] was 81%. The “Excretion, Urine” value [3] was 3%.
For CC(=O)c1c(C)c2cnc(Nc3ccc(N4CCNCC4)cn3)nc2n(C2CCCC2)c1=O [palbociclib], the “MTD and recommended phase 2 dose” value [6] is given as 125 mg, the “Patients with DLT” value [6] is given as 12% and the “Patients with QTc value of > 500 ms” value (phase 1 trial of palbociclib) is given as “none”. The “Patients with maximum increase from baseline QTc of < 30 ms” value (phase 1 trial of palbociclib) was 26 of 41, the AUCss ([4]; at recommended dose) was 1633 to 1982 ng·h/mL and the Tmax [4] was 6−12 h. The Volume of distribution [4] was 2583 L, the t1/2 [4] was 29 h and the DCR [1, 7] was 63.8%. For the same compound, the “Median PFS” value [1, 7] was 6.5 months, the IC50 (CDK6) was 15 nM and the IC50 (CDK4) was […].
In the case of CN(C)C(=O)c1cc2cnc(Nc3ccc(N4CCNCC4)cn3)nc2n1C1CCCC1 [ribociclib], the “DLT: QTcF prolongation” value (phase 1 study of ribociclib) is given as 1, the “DLT: increased creatinine” value (phase 1 study of ribociclib) is given as 1 and the “DLT: mucositis” value (phase 1 study of ribociclib) is given as 1. For the same compound, the “DLT: neutropenia” value (phase 1 study of ribociclib) was 3 cases, the “DLT: pulmonary embolism” value (phase 1 study of ribociclib) was 1 and the “DLT: thrombocytopenia” value (phase 1 study of ribociclib) was 2 cases. The “Patients with DLTs” value (phase 1 study of ribociclib, first treatment cycle) was 13%, the “Patients with QTcF prolongation” value (ribociclib) was 6–9% and the “Cmin,ss” value ([4]; at recommended dose) was 631 ng/mL. For the same compound, the Mild hepatic/renal impairment [4] was “No effect on exposure”, the Tmax [4] was 1−4 h and the Volume of distribution [4] was 1090 L. For the same compound, the IC50 (CDK4) was […], the Metabolism [2] was “Liver (CYP3A4)” and the “Excretion, Feces” value [3] was 69%. The “Excretion, Urine” value [3] was 23%.
